{
  "source": "patent US20210315880A1",
  "about": "“METHODS OF TREATING VIRAL INFECTIONS USING INHIBITORS OF NUCLEOTIDE SYNTHESIS PATHWAYS” (priority 2020, published 2021)",
  "key": {"solid malignancies": {"tested_on": "solid malignancies", "details": "cited from earlier work; for recommended dose for phase II studies: 1-h i.v. infusion every 3 weeks; for maximum tolerable dose: i.v. infusion every 3 weeks"}, "advanced lung cancer": {"tested_on": "advanced lung cancer", "details": "weekly rapid iv injection, previously treated patients with advanced lung cancer; cited from earlier work"}, "RNA virus": {"tested_on": "RNA virus", "assay": "Daily brequinar x 5 days in a subject infected with an RNA virus", "type": "in vivo", "details": "at first peak in brequinar level, once per day for five days", "experimental": "The mechanism by which administration of a DHODH inhibitor according to a daily dosing regimen inhibits viral replication is illustrated below. […] Throughout the course of the dosing regimen, levels of intracellular pyrimidines, such as uridine, and viral replication are measured."}, "[1]": {"tested_on": "acute myeloid leukemia (AML)", "assay": "Effect of brequinar-containing composition on patient with AML", "type": "in vivo, human"}, "[2]": {"details": "in vivo"}, "[3]": {"assay": "Adverse events in subjects receiving brequinar intravenously once a week", "details": "Infection"}, "DHODH": {"molecular_target": "DHODH (Homo sapiens, UniProt Q02127)", "sequence (Q02127 whole entry)": "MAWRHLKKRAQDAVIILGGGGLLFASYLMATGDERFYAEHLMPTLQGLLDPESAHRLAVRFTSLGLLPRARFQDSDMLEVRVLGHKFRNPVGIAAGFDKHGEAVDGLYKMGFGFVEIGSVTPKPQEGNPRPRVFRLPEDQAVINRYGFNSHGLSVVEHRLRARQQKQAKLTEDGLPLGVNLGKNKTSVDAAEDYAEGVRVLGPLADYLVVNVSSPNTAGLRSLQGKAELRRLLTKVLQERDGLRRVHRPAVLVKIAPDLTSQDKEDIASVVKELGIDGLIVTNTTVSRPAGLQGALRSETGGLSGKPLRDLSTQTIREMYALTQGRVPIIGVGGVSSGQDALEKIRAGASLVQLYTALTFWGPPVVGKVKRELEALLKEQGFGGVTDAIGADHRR"}, "[4]": {"details": "in vivo", "remark": "listed apart in the source"}, "SARS-CoV-2": {"tested_on": "SARS-CoV-2", "type": "cell-based"}, "Vero E6 cells": {"tested_on": "Vero E6 cells", "details": "remdesivir co-treated with brequinar"}},
  "note": "Read-outs that look alike come from different tables or passages of the source.",
  "data": [
    {"compound": "Cc1c(-c2ccc(-c3ccccc3F)cc2)nc2ccc(F)cc2c1C(=O)O", "note": "[Brequinar sodium]", "values": [
      {"measurement": "recommended dose for phase II studies", "setting": "solid malignancies; good-risk patients", "result": "1,800 mg/m^2"},
      {"measurement": "maximum tolerable dose", "setting": "solid malignancies; good-risk patients", "result": "2,250 mg/m^2"},
      {"measurement": "tumor response", "setting": "solid malignancies; patient with papillary carcinoma of the thyroid", "result": "One mixed response"},
      {"measurement": "recommended dose for phase II studies", "setting": "solid malignancies; poor-risk patients", "result": "1,200 mg/m^2"},
      {"measurement": "maximum tolerable dose", "setting": "solid malignancies; poor-risk patients", "result": "1,500 mg/m^2"}
    ]},
    {"compound": "NC(=O)c1[nH]nc([C@@H]2O[C@H](CO)[C@@H](O)[C@H]2O)c1O", "note": "[PYR, 5-[(2S,3R,4S,5R)-3,4-dihydroxy-5-(hydroxymethyl)oxolan-2-yl]-4-hydroxy-1H-pyrazole-3-carboxamide]", "values": [
      {"measurement": "therapeutic value", "setting": "advanced lung cancer", "result": "has little therapeutic value as a single agent"}
    ]},
    {"compound": "Cc1c(-c2ccc(-c3ccccc3F)cc2)nc2ccc(F)cc2c1C(=O)O", "note": "[brequinar, 6-fluoro-2-(2′-fluoro-1,1′ biphenyl-4-yl)-3-methyl-4-quinoline carboxylic acid]", "values": [
      {"measurement": "intracellular pyrimidine pool", "setting": "RNA virus", "result": "dramatic decrease in the intracellular pyrimidine pool"},
      {"measurement": "viral replication", "setting": "RNA virus", "result": "dramatic reduction in viral replication"},
      {"measurement": "response", "setting": "[1]; first patient with AML (Example 12)", "result": "positive response as indicated by reduction in bone marrow blast count, improvement of extramedullary hematopoiesis, and shift to more differentiation in peripheral blasts"},
      {"measurement": "response", "setting": "[1]; patient with AML of Example 14", "result": "positive response as indicated by a trend towards differentiation of their peripheral blasts"},
      {"measurement": "response", "setting": "[1]; second patient with AML (Example 13)", "result": "positive response to the disease with a lowering of peripheral blasts and increase in absolute neutrophil count, along with greater differentiation of peripheral blasts"},
      {"measurement": "oral versus IV formulations", "setting": "[2]", "result": "oral and IV formulations are equivalent"},
      {"measurement": "No. of Patients", "setting": "[3]", "result": 7},
      {"measurement": "No. of Patients Experiencing the AE, 5 y Max Grade 1", "setting": "[3]", "result": 4},
      {"measurement": "No. of Patients Experiencing the AE, 5 y Max Grade 2", "setting": "[3]", "result": 3},
      {"measurement": "No. of Patients Experiencing the AE, 5 y Max Grade 3", "setting": "[3]", "result": 0},
      {"measurement": "No. of Patients Experiencing the AE, 5 y Max Grade 4", "setting": "[3]", "result": 0},
      {"measurement": "Percent", "setting": "[3]", "result": 3.3, "unit": "%"},
      {"measurement": "concentrations at which DHODH is almost completely inhibited", "setting": "DHODH", "result": "> 1", "unit": "µM"},
      {"measurement": "effect of repeated doses", "setting": "[4]", "result": "No cumulative effective of repeated doses"}
    ]},
    {"compound": "CCC(CC)COC(=O)[C@H](C)N[P@](=O)(OC[C@H]1O[C@@](C#N)(c2ccc3c(N)ncnn23)[C@H](O)[C@@H]1O)Oc1ccccc1", "note": "[remdesivir]", "values": [
      {"measurement": "Min Data", "setting": "SARS-CoV-2; brequinar 0.000 μM", "result": "−11", "unit": "%"},
      {"measurement": "Min Data", "setting": "SARS-CoV-2; brequinar 0.078 μM", "result": "−1.9", "unit": "%"},
      {"measurement": "cytotoxicity of co-treatment", "setting": "Vero E6 cells", "result": "No enhanced cytotoxicity"}
    ]}
  ]
}
